These results are taken from ChEMBL document CHEMBL1136829, “Adenosine kinase inhibitors: polar 7-substitutent of pyridopyrimidine derivatives improving their locomotor selectivity” (Bioorg Med Chem Lett, 2003).

Each structure is given as a SMILES string.

The nature of assay [1]: Effective dose to reduce locomotor side effects in animals was determined. Type of assay: functional.
Assay [2] deals with T1, Adenosine kinase (Homo sapiens, UniProt P55263). The experiment in a line: Inhibitory concentration against adenosine kinase was determined.
T1 sequence (P55263 whole entry): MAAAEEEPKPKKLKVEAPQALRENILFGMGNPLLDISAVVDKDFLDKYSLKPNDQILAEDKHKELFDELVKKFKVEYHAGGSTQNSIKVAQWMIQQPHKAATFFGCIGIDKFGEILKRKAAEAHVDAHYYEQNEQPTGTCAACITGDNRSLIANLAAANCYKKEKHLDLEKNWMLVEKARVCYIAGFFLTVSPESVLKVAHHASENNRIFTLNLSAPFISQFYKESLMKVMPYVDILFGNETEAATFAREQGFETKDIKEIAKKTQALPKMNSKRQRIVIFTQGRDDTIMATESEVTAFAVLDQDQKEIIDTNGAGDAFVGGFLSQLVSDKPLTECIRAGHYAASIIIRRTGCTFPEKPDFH
A further assay is filed under the species Rattus norvegicus. The experiment in a line: Effective dose to reduce pain in carregenin induced thermal hyperalgesia assay in rat was determined. The assay is classed as functional.
The target in assay [3] is T1, Adenosine kinase. The assay is described as follows: Inhibitory concentration against adenosine kinase was determined in cell assay.
A short description of assay [4]: Percent inhibition of the locomotor side effects in animals at 30 umol/kg po was determined. Type of assay: functional.
Assay [5] is described as follows: Percent inhibition of the locomotor side effects in animals at 100 umol/kg po was determined. Type of assay: functional.

The ED50 is the dose at which the effect has come halfway, by size or by number of responders. What is called IC50 is the midpoint of a concentration-inhibition curve. A high value points to a need for much substance. Regarding `Nc1ncnc2nc(-c3ccc(N4CCC(COC5CCOCC5)CC4)nn3)cc(-c3cccc(Br)c3)c12`, the ED50 (in assay [1]; in the assay filed under Rattus norvegicus) was 5 µmol/kg each time. Also, the IC50 was determined as 2.8 nM against Adenosine kinase [2] and 17.3 nM against Adenosine kinase [3].
Regarding `CON=C1CCN(c2ccc(-c3cc(-c4cccc(Br)c4)c4c(N)ncnc4n3)nn2)CC1`, the ED50 in assay [1] stood at 6 µmol/kg; in the assay filed under Rattus norvegicus, 13 µmol/kg. The IC50 at Adenosine kinase [2] was 18.8 nM; against Adenosine kinase [3], 74.4 nM.
Take `Nc1ncnc2nc(-c3ccc(N4CCC5(CC4)COCO5)nc3)cc(-c3cccc(Br)c3)c12`: the median effective dose (ED50) is 6 µmol/kg in assay [1] and 2 µmol/kg in the assay filed under Rattus norvegicus. For the same molecule, the IC50 at Adenosine kinase [2] turned out to be 8.3 nM; against Adenosine kinase [3] it was 378 nM.
For `CCO[C@H]1CN(c2ccc(-c3cc(-c4cccc(Br)c4)c4c(N)ncnc4n3)nn2)C[C@H]1OCC`, in that order: 25 µmol/kg, 3 µmol/kg, 7.2 nM and 40.7 nM.
Consider `COCCOC1CCN(c2ccc(-c3cc(-c4cccc(Br)c4)c4c(N)ncnc4n3)nn2)CC1`, for which the results for the ED50 (in assay [1]; in the assay filed under Rattus norvegicus) were 10 µmol/kg and 3 µmol/kg, respectively. Besides, the IC50 against Adenosine kinase [2] stood at 15.1 nM; against Adenosine kinase [3], 81.9 nM.
The corresponding values for `Nc1ncnc2nc(-c3ccc(N4CCC(=NOC5CCOCC5)CC4)nn3)cc(-c3cccc(Br)c3)c12` are 7 µmol/kg, 2 µmol/kg, 7.1 nM and 52 nM.
Usually inhibition in vivo stands for how much of the control response was suppressed. Read a low inhibition in vivo as a response near the control. In assay [4], `Nc1ncnc2nc(-c3ccc(N4CCC(O)(C5CCOC5=O)CC4)nc3)cc(-c3cccc(Br)c3)c12` (stereo unspecified) showed an inhibition in vivo at 30 µmol/kg of 97%. Besides, the inhibition in vivo at 100 µmol/kg in assay [5] worked out at 87%. Also, the values for the IC50 at Adenosine kinase [2] and on Adenosine kinase [3] were 8.1 nM and 50.2 nM, respectively. Also, the median effective dose (ED50) in the assay listed under Rattus norvegicus came out at 4 µmol/kg.
Turning to `Nc1ncnc2nc(-c3ccc(N4CC5CC4CO5)nc3)cc(-c3cccc(Br)c3)c12` (stereo unspecified), the ED50 in assay [1] came to 8 µmol/kg; in the assay listed under Rattus norvegicus, 2 µmol/kg. Moreover, the IC50 against Adenosine kinase [2] was determined as 7.5 nM; on Adenosine kinase [3], 19.5 nM.
Molecule `Nc1ncnc2nc(-c3ccc(N4C[C@@H](O)[C@@H](O)C4)nc3)cc(-c3cccc(Br)c3)c12` returned an inhibition in vivo at 30 µmol/kg in assay [4] of 73%. In addition, the IC50 was determined as 6.5 nM on Adenosine kinase [2] and 130 nM against Adenosine kinase [3]. The same molecule registered an ED50 in the assay filed under Rattus norvegicus of 2 µmol/kg.
As for `CCOC1CCN(c2ccc(-c3cc(-c4cccc(Br)c4)c4c(N)ncnc4n3)nn2)CC1`, the results for the ED50 (in assay [1]; in the assay listed under Rattus norvegicus) were 20 µmol/kg and 7 µmol/kg, respectively. Also, the IC50 against Adenosine kinase [2] was 10.4 nM; against Adenosine kinase [3] it was 51.7 nM.
The corresponding values for `Nc1ncnc2nc(-c3ccc(N4CCC(CCOC5CCOCC5)CC4)nn3)cc(-c3cccc(Br)c3)c12` are 9 µmol/kg, 30 µmol/kg, 22.8 nM and 89.5 nM.
Molecule `N#C[C@H]1CN(c2ccc(-c3cc(-c4cccc(Br)c4)c4c(N)ncnc4n3)cn2)C[C@H]1O` came in with an inhibition in vivo at 30 µmol/kg in assay [4] of 91%. The IC50 at Adenosine kinase [2] is 7.5 nM; against Adenosine kinase [3] it was 496 nM. The molecule also had an ED50 in the assay listed under Rattus norvegicus of 4 µmol/kg.
For the molecule `Nc1ncnc2nc(-c3ccc(N4CCC[C@H]4CO)nn3)cc(-c3cccc(Br)c3)c12`, the inhibition in vivo at 30 µmol/kg in assay [4] came out at 98%. The inhibition in vivo at 100 µmol/kg in assay [5] amounted to 75%. The 50% inhibitory concentration (IC50) against Adenosine kinase [2] was determined as 16.2 nM; at Adenosine kinase [3], 154 nM. The ED50 in the assay filed under Rattus norvegicus came out at 10 µmol/kg.
With `C/C(=N/OC1CCOCC1)C1(O)CCN(c2ccc(-c3cc(-c4cccc(Br)c4)c4c(N)ncnc4n3)cn2)CC1`, the median effective dose (ED50) in assay [1] came out at 30 µmol/kg; in the assay listed under Rattus norvegicus, 5 µmol/kg. Also, the IC50 against Adenosine kinase [2] is 31.7 nM; at Adenosine kinase [3] it was 43.7 nM.
As to `Nc1ncnc2nc(-c3ccc(N4CCC(=NOC5CCOCC5)CC4)nc3)cc(-c3cccc(Br)c3)c12`, the results for the 50% effective dose (ED50) (in assay [1]; in the assay listed under Rattus norvegicus) were 10 µmol/kg and 2 µmol/kg, respectively. Half-maximal inhibition on Adenosine kinase [2] (IC50) required 10 nM.
